In test [1] the test system is sema4D/CD100. The test can be described thus: sema4D/CD100 cleavage in activated platelets (immunoblot with Abm30). The settings on record: for cleavage of sema4D/CD100: platelets stimulated with 100 nM PMA at 37° C. for 30 min, 20 μM TAPI-2 preincubated for 60 min (FIG. 4A), EDTA not shown. Type of test: cell-based, human. The source says: (§1) FIG. 4 represents the effect of metalloprotease inhibitors on sema4D expression. […] Sema4D was precipitated and blotted with Abm30. Ig light and heavy chains are indicated.
(§2) The observation that sema4D/CD100 cleavage occurs in washed platelets implies that the protease involved is intrinsic to the platelets and not a plasma protein. Platelets are known to contain a number of metalloproteases, including members of the MMP and ADAM families (Sheu, J. R., et al., Br J Pharmacol, 2004. 143(1): p. 193-201. Sawicki, G., et al., Nature, 1997. 386: p. 616-619. Sawicki, G., et al., Thromb. Haemost., 1998. 80: p. 836-839. Colciaghi, F., et al., Mol Med, 2002. 8(2): p. 67-74.).
Background: A western blot detects proteins with antibodies after separation by electrophoresis.

A further test relates to Akt. The test can be described thus: Akt phosphorylation (pAkt473 immunoblot) in human platelets. Type of test: cell-based. The settings on record: immunoblot for pAkt473, absent in resting platelets (FIG. 7). Here is the method:
FIG. 7 represents an immunoblot for pAkt473 from human platelets that were stimulated with recombinant sema4D or thrombin.
Activation of the PI 3-kinase pathway was measured using phosphorylation of Akt as a surrogate. Akt phosphorylation normally occurs in platelets activated by collagen and other agonists. Akt phosphorylation was also recently shown to occur in endothelial cells stimulated with soluble sema4D/CD100 (Basile, et al. Mol Cell Biol. […]: 6889, 2005). In endothelial cells responses to sema4D/CD100 appear to be mediated by plexin-B1. In FIG. 7, human platelets were stimulated with a His-tagged protein corresponding to the human sema4D/CD100 exodomain. Platelet lysates were prepared and immunoblotted with an antibody specific for pAkt473. Thrombin was used as a positive control.

Another test has as its system monocytes. The settings on record: cited from earlier work.
A further test concerns human platelets. The experiment in a line: ADP-induced platelet aggregation. In kind it is cell-based. Here is the method:
FIG. 9A represents human platelets that were stimulated with a low concentration of ADP±soluble a soluble chimera of the extracellular domain of sema4D/CD100 fused to IgGκ Fc. FIG. 9B represents an immunoblot of FcCD100 that was performed under reducing and non-reducing conditions using anti-Fc.
Soluble sema4D/CD100 caused an increase in ADP-induced aggregation (FIG. 9). In this experiment, soluble sema4D/CD100 was added as a fusion protein (referred to as FcSema4D or FcCD100) in which the entire extracellular domain of sema4D/CD100 was fused to an IgG Fc domain. The protein forms a disulfide-linked homodimer capable of activating sema4D/CD100 receptors (Ishida, I., et al., Int Immunol, 2003. 15(8): p. 1027-34). FcCD100 had no effect when added on its own (not shown). […] Therefore, it appears that stimulating a receptor for sema4D/CD100 on platelets potentiates platelet responses to ADP. Additional platelet agonists (especially collagen) are going to be explored using platelet accumulation on collagen under flow as an additional endpoint.

The target in the next test is T1, recombinant ADAM17 (Homo sapiens, UniProt P78536).
T1 construct: incubated with recombinant ADAM17 lacking the pro domain
The experiment in a line: Cleavage of Fc-sema4D by recombinant ADAM17. Type of test: biochemical. The settings on record: recombinant ADAM17 lacking the pro domain (FIG. 11). On the procedure: FIG. 11 represents the cleavage of sema4D by ADAM17. Recombinant ADAM17 was incubated with Fc-sema4D in which the extracellular domain of human sema4D was joined via a linker to the N-terminus of IgG1 Fc. Two fragments were detected by amido black protein staining (left), the smaller of which (fragment #1) was also detectable with anti-Fc, as was the intact protein (middle). The N-terminal sequence of fragment #1 was determined.
The cleavage site within platelet sema4D/CD100 was determined by using the C-terminal sema4D/CD100 antibody to immunoprecipitate the 25-30 kDa fragment that includes the transmembrane domain and any remaining extracellular domain. […]
In an effort to determine whether sema4D is a direct substrate for ADAM17, a chimeric protein comprised of the extracellular domain of human sema4D fused to the N-terminus of an IgG Fc domain fragment (Ishida et al. 2003. Int Immunol 15:1027-1034) was incubated with recombinant ADAM17 lacking the pro domain (Milla et al. 1999. J Biol Chem 274:30563-30570). […] It has been determined that in platelets, as in lymphocytes, the extracellular domain of sema4D/CD100 is shed as a disulfide-linked dimer.

Test [2] deals with sema4D/CD100. The test can be described thus: sema4D/CD100 surface expression on platelets by FACS. In kind it is cell-based, human. The settings on record: platelets stimulated with PMA for 15 min or 60 min, FACS (FIG. 4B). On the procedure: as §1
Surface expression of sema4D/CD100 was detected by FACS using an antibody that recognizes the extracellular domain. Expression increased when the platelets were activated with PMA for 15 minutes (FIG. 1C). In contrast, the α-granule membrane protein, P-selectin, was detected only on activated platelets.
as §2
On the technique in general: Flow cytometry measures light scatter and fluorescence of single cells or particles in a stream.

Test [3] concerns sema4D/CD100. The test can be described thus: Rate of sema4D/CD100 cleavage in stirred, PMA-activated platelets. Type of test: cell-based, human. The settings on record: fibrinogen binding and aggregation inhibited by the peptide (not shown). On the procedure: Washed platelets were stimulated with 100 nM PMA in an aggregometer cuvette at 37° C. with or without stirring. Lysates were precipitated and blotted with antibody Abm30. The extent of platelet aggregation in the stirred samples is indicated below each lane.
To address the issue of whether the rate of sema4D/CD100 cleavage is different when aggregation is allowed to occur than when activation occurs in the absence of aggregation, platelets were activated with or without the stirring needed for platelet aggregates to form. PMA caused a time-dependent loss of intact sema4D/CD100 and the appearance of the C-terminal sema4D/CD100 fragment. The rate of cleavage was accelerated when aggregation was allowed to occur (FIG. 3). Even at its fastest, however, cleavage lagged behind aggregation.
Platelet aggregation study also included the use of washed platelets were stimulated with 100 nM PMA in an aggregometer cuvette at 37° C. with or without stirring. Lysates were precipitated and blotted with antibody Abm30.

T1 sequence (P78536 215-824): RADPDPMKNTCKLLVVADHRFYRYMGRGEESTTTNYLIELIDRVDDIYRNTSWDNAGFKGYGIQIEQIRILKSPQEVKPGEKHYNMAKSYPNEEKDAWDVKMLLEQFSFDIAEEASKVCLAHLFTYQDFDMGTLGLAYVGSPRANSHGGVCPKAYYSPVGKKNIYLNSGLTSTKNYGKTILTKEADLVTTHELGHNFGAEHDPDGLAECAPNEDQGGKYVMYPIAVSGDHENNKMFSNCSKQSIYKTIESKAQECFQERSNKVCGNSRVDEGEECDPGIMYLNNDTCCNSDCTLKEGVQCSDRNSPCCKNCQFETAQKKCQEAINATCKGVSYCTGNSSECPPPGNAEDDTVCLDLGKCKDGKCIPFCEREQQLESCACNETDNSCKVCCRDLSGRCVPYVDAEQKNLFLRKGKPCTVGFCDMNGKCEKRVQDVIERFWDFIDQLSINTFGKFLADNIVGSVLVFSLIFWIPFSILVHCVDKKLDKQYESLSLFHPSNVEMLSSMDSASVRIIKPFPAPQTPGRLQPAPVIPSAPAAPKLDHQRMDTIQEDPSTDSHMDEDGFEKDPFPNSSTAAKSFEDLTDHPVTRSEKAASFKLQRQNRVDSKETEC

`CNC(=O)[C@H](Cc1c[nH]c2ccccc12)NC(=O)[C@@H](CC(=O)NO)CC(C)C` [GM6001]: the “cleavage of sema4D/CD100” value in the test on sema4D/CD100 [1] is recorded as “inhibited”.

Regarding thrombin, the “pAkt in platelet lysates” value with Akt is on record as “readily detectable”.

On to “soluble sema4D/CD100: in FIG. 7 a His-tagged protein corresponding to the human sema4D/CD100 exodomain”, for which, in the test on Akt, the “pAkt in platelet lysates” value is reported as “readily detectable”. Besides, in the test on monocytes, the “half-maximal effects on monocytes” value was 5 to 10 ng/mL and the “maximal effects on monocytes” value is 40 to 50 ng/mL.

As for `O=C(O)CN(CCN(CC(=O)O)CC(=O)O)CC(=O)O` [EDTA], the “cleavage of sema4D/CD100” value in the test on sema4D/CD100 [1] is reported as “inhibited”.

For “FcCD100: fusion protein in which the entire extracellular domain of sema4D/CD100 was fused to an IgG Fc domain; disulfide-linked homodimer”, the “platelet aggregation in the presence of ADP” value with human platelets (low concentration of ADP (FIG. 9)) is given as “caused an increase in platelet aggregation”. The “platelet aggregation, added on its own” value in the test on human platelets (no ADP (not shown)) is “no effect”. In addition, the “cleavage by recombinant ADAM17” value with recombinant ADAM17 is on record as “Cleavage produced two identifiable fragments”.

Consider `CC(C)C[C@H](CC(=O)NO)C(=O)N[C@H](C(=O)N[C@@H](C)C(=O)NCCN)C(C)(C)C` [TAPI-2], for which the sema4D/CD100 cleavage entry in the test with sema4D/CD100 [1] (platelets activated by thrombin or SFLLRN (not shown)) is reported as “abolished”. In addition, the “cleavage of sema4D/CD100” value in the test with sema4D/CD100 [1] is “inhibited”. Also, in the test with sema4D/CD100 [2], the “loss of sema4D/CD100 surface expression” value is reported as “prevented the loss of surface expression”.

Consider RGDS, for which the “rate of sema4D/CD100 cleavage” value in the test with sema4D/CD100 [3] is “the rate of cleavage became more like that seen when the platelets were activated without stirring”.

(Values after US20100040617A1, “Method of Using CD100 (or Sema4D) to Mediate Platelet Activation and Inflammatory Responses” (Trustees of the University of Pennsylvania, priority 2004, published 2010).)
